CC1=CC(=O)c2ccccc2C1=O
solubility (mole fraction)
Conditions | in 1,2-dichloroethane | in acetone | in acetonitrile | in cyclohexane | in dichloromethane | in isopropanol | in methanol | in methyl acetate | in n-butanol | in n-propanol
278.15 K | 0.0879 | 0.0305 | 0.016 | – | 0.111 | 0.00291 | 0.00285 | 0.0427 | 0.00314 | 0.00343
283.15 K | 0.108 | 0.0381 | 0.0197 | 0.00329 | 0.128 | 0.00373 | 0.00335 | 0.0481 | 0.00417 | 0.00426
288.15 K | 0.12 | 0.0439 | 0.027 | 0.00417 | 0.148 | 0.0048 | 0.00396 | 0.0595 | 0.0057 | 0.00564
293.15 K | 0.142 | 0.0534 | 0.0326 | 0.00514 | 0.169 | 0.00588 | 0.00484 | 0.0718 | 0.00742 | 0.00685
298.15 K | 0.159 | 0.0669 | 0.0403 | 0.00673 | 0.193 | 0.00764 | 0.00606 | 0.0854 | 0.00994 | 0.00838
303.15 K | 0.187 | 0.0809 | 0.0491 | 0.00848 | 0.219 | 0.0096 | 0.00709 | 0.105 | 0.0127 | 0.01
308.15 K | 0.21 | 0.0983 | 0.0609 | 0.0103 | 0.247 | 0.0122 | 0.00827 | 0.12 | 0.0169 | 0.0122
313.15 K | 0.243 | 0.118 | 0.0737 | 0.0131 | 0.277 | 0.0153 | 0.00975 | 0.148 | 0.0223 | 0.0143
